Source: US20060030574A1, “Quinazoline derivatives useful for the treatment of peripheral arterial disease and as phosphodiesterase inhibitors” (Shire Holdings AG, priority 2004, published 2006)
pIC50: −log10 of the molar value. Values joined by “and” are separate entries in the source; they are usually repeats but may differ in a detail not shown here. Equal entries are not always repeated. Where two headings read alike, the source gives them in different places. Values belong to the molecule of their own block, whether it stands above or below them.

Experiments:
Phosphodiesterase I = tested on: Phosphodiesterase I
Description: (§1) The profile of activity against a selection of phosphodiesterases (I-VI) was investigated. The methods used for the evaluation of the biological activity are all well known in the art. See for example, Weishaar et al; Biochem. Pharmacol., 35:787-800.

Phosphodiesterase II (h) = Phosphodiesterase II (h) (Homo sapiens, UniProt O00408); assay: Phosphodiesterase II (h) inhibition; assay type: biochemical
[1] = target: Phosphodiesterase III (h) (Homo sapiens, UniProt Q14432); assay: Phosphodiesterase III (h) inhibition; assay type: biochemical
Phosphodiesterase IV (h) = Phosphodiesterase IV (h) inhibition; assay type: biochemical, human; conditions: 10 μM; percent inhibition of control activity, mean values, n = 2
Phosphodiesterase V (h) = Phosphodiesterase V (h) (Homo sapiens, UniProt O76074); assay: Phosphodiesterase V (h) inhibition; assay type: biochemical
Description: as §1

Phosphodiesterase VI = target: T1, Phosphodiesterase VI (Bos taurus, UniProt P11541+P23439); assay: Phosphodiesterase VI inhibition; assay type: biochemical
T1 sequence (P11541 2-856): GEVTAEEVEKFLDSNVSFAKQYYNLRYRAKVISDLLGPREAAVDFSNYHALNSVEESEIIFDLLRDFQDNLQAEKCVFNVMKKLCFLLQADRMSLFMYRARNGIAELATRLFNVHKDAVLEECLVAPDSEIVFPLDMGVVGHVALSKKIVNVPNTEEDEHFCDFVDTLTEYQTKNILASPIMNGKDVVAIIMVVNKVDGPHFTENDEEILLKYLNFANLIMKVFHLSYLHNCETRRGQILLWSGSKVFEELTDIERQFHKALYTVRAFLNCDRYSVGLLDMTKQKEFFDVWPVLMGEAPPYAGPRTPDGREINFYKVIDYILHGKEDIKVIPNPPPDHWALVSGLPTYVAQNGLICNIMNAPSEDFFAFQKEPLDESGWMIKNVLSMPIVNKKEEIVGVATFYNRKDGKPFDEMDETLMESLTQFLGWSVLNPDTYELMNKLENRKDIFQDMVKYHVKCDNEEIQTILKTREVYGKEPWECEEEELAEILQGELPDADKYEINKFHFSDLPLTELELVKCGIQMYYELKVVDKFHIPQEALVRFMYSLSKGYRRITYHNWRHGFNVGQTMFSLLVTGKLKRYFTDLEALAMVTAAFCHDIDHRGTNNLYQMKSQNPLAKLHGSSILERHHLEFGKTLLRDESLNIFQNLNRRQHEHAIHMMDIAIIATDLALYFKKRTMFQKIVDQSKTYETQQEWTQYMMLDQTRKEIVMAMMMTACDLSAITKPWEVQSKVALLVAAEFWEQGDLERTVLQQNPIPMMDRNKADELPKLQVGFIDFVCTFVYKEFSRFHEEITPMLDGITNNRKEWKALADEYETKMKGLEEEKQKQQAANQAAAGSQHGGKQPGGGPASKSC
T1 sequence (P23439 2-850): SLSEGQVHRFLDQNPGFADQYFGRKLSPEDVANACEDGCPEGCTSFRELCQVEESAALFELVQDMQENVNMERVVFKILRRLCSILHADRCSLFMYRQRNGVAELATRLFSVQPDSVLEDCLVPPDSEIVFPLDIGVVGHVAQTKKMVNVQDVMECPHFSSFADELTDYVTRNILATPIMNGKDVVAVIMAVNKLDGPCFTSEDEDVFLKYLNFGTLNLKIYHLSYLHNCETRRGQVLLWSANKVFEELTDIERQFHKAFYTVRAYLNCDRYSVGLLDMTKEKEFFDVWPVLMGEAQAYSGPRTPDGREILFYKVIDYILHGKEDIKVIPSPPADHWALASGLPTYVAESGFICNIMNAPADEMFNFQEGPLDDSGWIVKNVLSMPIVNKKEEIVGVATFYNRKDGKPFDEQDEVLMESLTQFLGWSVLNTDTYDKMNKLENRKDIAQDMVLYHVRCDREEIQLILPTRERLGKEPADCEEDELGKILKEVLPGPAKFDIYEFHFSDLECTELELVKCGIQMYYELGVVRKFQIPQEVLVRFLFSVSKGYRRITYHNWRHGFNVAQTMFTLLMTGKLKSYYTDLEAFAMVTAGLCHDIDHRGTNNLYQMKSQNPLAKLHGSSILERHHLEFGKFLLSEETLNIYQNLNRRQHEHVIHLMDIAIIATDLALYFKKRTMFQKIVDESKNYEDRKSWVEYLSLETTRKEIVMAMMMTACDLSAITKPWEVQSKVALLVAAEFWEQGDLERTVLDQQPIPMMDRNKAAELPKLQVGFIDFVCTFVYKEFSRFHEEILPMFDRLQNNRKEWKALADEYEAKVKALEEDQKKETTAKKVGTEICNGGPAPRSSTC
T1 sequence (P04972 1-87 partner): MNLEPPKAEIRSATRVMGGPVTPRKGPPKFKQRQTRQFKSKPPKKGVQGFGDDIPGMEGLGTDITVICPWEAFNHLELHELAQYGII
Experimental: The IC50 value against PDEVI was determined.

[2] = Hill coefficient of the test compound
[3] = Hill coefficient of the reference compound

Phosphodiesterase III (h), sequence (Q14432 whole entry): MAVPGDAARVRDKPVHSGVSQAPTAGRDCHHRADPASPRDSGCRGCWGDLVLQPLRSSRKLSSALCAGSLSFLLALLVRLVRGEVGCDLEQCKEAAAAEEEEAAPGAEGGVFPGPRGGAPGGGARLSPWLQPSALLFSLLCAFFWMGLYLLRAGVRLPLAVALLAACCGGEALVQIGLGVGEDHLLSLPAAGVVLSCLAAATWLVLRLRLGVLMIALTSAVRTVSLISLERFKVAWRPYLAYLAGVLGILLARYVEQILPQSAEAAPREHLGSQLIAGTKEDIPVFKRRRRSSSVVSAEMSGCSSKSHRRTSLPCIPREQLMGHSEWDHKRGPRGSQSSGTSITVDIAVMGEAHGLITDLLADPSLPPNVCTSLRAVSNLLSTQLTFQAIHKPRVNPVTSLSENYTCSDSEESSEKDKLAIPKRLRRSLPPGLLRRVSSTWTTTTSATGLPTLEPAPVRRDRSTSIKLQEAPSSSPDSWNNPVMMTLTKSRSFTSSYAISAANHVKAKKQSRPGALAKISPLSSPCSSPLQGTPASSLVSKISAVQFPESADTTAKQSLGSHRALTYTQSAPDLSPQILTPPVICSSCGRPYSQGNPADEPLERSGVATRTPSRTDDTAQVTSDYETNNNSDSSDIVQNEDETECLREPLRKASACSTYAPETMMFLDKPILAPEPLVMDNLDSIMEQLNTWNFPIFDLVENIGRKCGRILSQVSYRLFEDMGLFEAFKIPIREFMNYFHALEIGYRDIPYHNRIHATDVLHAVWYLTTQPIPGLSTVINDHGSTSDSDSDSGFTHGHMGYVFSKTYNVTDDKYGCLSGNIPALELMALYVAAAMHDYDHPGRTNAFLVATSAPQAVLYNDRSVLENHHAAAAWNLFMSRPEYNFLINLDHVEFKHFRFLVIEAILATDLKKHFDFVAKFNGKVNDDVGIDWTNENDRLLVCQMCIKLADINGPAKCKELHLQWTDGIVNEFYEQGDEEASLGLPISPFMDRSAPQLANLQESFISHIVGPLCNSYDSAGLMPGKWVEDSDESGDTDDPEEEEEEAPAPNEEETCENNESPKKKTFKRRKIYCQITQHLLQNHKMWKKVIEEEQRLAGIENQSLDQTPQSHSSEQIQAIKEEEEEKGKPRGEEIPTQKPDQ
Phosphodiesterase II (h), sequence (O00408 whole entry): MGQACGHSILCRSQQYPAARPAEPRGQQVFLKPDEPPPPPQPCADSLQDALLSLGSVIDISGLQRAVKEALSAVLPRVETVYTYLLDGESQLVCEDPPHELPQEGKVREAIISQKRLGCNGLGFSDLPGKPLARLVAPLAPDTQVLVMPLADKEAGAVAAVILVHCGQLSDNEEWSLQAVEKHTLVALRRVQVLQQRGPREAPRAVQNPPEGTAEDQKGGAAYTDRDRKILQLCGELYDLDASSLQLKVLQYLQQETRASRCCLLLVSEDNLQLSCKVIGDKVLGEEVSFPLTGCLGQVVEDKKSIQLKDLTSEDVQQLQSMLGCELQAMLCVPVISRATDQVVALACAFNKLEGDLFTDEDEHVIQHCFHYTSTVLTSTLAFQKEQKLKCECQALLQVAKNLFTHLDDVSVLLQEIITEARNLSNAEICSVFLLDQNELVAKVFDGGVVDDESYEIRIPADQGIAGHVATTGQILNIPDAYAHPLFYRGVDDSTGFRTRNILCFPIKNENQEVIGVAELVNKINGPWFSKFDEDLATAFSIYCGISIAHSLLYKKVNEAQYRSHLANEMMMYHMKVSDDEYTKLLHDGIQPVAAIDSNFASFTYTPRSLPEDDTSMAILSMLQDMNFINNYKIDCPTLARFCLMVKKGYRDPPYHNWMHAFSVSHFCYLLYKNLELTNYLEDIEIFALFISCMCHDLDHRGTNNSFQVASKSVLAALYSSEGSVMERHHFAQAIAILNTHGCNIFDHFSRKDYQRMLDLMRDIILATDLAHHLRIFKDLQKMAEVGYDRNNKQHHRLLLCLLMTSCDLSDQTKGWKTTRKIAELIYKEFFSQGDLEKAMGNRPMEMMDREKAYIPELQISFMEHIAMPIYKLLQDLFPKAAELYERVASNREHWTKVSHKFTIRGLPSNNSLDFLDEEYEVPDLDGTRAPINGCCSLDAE

melting point: 170 °C (dec.)
SMILES: O=C1NC2=Nc3ccc(Cl)c(Cl)c3CN2C1O (stereo not shown) [Compound #3, 6,7-dichloro-3-hydroxy-1,5-dihydro-imidazo[2,1-b]quinazolin-2-one]

SMILES: O=CC(=O)NC1=Nc2ccc(Cl)c(Cl)c2CN1 [Compound#1, N-(5,6-dichloro-3,4-dihydroquinazolin-2-yl)-2-oxoacetamide]
% inhibition (Phosphodiesterase I; 10 μM, percent inhibition of control activity, mean values, n = 2): 26%
inhibition at 10 µM (Phosphodiesterase II (h)): < 10%
inhibition at 10 µM [1]: 97%
pIC50 ([1]; average of two separate occasions, read-out: IC50 (average)): 9.05
pIC50 ([1]; test compound, assay 1 and assay 2 (two separate occasions), read-out: IC50): 9.16 and 8.96
% inhibition (Phosphodiesterase IV (h)): — (The symbol - indicates an inhibition of less than 10%.)
inhibition at 10 µM (Phosphodiesterase V (h)): 64%
inhibition at 10 µM (Phosphodiesterase VI): 89%
(nH) (Phosphodiesterase VI; [2]): (1.0)

SMILES: COCc1nc2c([nH]1)c(=O)n(C)c(=O)n2CC(C)C [8-methoxy-IBMX, reference compound]
pIC50 (Phosphodiesterase I; read-out: Reference compounds IC50, control value for the reference compound): 5.62

Reference compounds (nH) (Phosphodiesterase V (h); [3]): (1.3)
SMILES: OCCN(CCO)c1nc(N2CCCCC2)c2nc(N(CCO)CCO)nc(N3CCCCC3)c2n1 [dipyridamole, reference compound]

Reference compounds (nH) [1, 3]: 0.6
SMILES: Cc1[nH]c(=O)c(C#N)cc1-c1ccncc1 [milrinone, reference compound]

(nH) [1, 2]: 0.4
SMILES: O=C1NC2=NCc3c(ccc(Cl)c3Cl)N2C1O (stereo not shown) [Compound#5, (6,7-Dichloro-1-hydroxy-3,5-dihydro-imidazo[1,2-a]quinazolin-2-one)]

Reference compounds (nH) (Phosphodiesterase II (h); [3]): (0.7)
pIC50 (Phosphodiesterase II (h); control value for the reference compound, read-out: Reference compounds IC50): 5.59
SMILES: CCCCCC[C@@H]([C@@H](C)O)n1cnc2c(N)ncnc21 (racemic) [EHNA]
